Source: patent US20090299044A1 (priority 2006, published 2009)
Bridge positions count the residues as written; N and C are the ends. Square brackets hold non-standard residues; d marks the D form. Peptide text beside a SMILES is read from it. 1Nal = N[C@@H](Cc1cccc2ccccc12)C(=O)O

Legend:
human Kv1.3 (CHO) = target: T1, human Kv1.3 (CHO) (Homo sapiens, UniProt P22001); experiment: cell-based
T1 construct: expressed in transfected cells; host or cells: CHO

human Kv1.1 (HEK293) = target: T2, human Kv1.1 (HEK293) (Homo sapiens, UniProt Q09470); experiment: cell-based
T2 construct: expressed in transfected cells; host or cells: HEK293
T2 sequence (Q09470 whole entry): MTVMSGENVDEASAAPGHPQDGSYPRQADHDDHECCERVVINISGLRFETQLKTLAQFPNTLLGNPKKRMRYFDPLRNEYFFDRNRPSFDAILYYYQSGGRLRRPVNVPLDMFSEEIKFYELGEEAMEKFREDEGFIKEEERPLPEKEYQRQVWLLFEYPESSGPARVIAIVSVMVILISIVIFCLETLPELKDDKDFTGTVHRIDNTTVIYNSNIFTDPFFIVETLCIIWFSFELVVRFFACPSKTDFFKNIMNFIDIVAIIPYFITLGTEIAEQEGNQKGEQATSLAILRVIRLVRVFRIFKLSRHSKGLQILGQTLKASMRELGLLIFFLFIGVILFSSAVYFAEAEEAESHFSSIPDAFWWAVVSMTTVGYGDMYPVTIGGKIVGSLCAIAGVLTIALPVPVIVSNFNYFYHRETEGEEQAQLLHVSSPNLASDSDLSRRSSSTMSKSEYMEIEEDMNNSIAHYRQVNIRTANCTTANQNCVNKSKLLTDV

T1 sequence (P22001 whole entry): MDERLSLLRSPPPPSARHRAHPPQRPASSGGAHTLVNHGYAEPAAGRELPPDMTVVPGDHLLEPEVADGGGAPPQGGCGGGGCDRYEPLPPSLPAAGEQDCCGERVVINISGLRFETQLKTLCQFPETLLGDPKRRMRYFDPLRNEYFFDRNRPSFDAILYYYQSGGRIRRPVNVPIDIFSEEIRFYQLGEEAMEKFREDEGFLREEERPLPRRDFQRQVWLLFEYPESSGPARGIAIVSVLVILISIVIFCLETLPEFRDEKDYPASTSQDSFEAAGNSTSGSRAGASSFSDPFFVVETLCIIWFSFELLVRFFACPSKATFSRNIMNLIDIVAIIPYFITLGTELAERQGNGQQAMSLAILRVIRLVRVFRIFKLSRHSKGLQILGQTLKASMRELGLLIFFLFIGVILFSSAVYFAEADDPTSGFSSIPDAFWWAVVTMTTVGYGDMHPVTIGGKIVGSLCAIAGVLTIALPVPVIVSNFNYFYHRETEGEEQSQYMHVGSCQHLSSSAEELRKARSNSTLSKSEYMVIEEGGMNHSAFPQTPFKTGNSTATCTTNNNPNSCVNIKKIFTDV

SMILES	IC50 (human Kv1.3 (CHO))	IC50 (human Kv1.1 (HEK293))
CC[C@H](C)[C@@H]1NC(=O)[C@H](CCCCN)NC(=O)[C@@H](NC(=O)[C@H](CCCCN)NC(=O)[C@@H](NC(=O)[C@H](CC(N)=O)NC(=O)[C@H](CCCNC(=N)N)NC(=O)[C@@H](NC(=O)[C@@H](NC(=O)CN)C(C)C)[C@@H](C)CC)C(C)C)CSSC[C@@H]2NC(=O)[C@H](CCCCN)NC(=O)CNC(=O)[C@H](Cc3ccccc3)NC(=O)[C@H](CCCNC(=N)N)NC(=O)[C@H](CCSC)NC(=O)CNC(=O)[C@H](C)NC(=O)[C@H](CCCCN)NC(=O)[C@H](CCCCN)NC(=O)[C@@H]3CSSC[C@@H](C(=O)N[C@H](C(=O)N4CCC[C@H]4C(=O)N[C@@H](CCCCN)C(=O)O)[C@@H](C)O)NC(=O)[C@H](Cc4c[nH]cn4)NC(=O)[C@H](CSSC[C@H](NC(=O)[C@H](CCC(N)=O)NC(=O)[C@H](CCCNC(=N)N)NC(=O)[C@H](CO)NC1=O)C(=O)N[C@@H](CC(C)C)C(=O)N[C@@H](CCC(=O)O)C(=O)N1CCC[C@H]1C(=O)N3)NC(=O)[C@H](CCCCN)NC(=O)CNC(=O)[C@H](CC(N)=O)NC(=O)[C@H](CCSC)NC2=O [I4R] (H-GVIRNVKCKISRQCLEPCKKAGMRFGKCMNGKCHCTPK-OH; disulfide 8-28, 14-33, 18-35)	0.0104 nM	0.00192 nM
CC[C@H](C)[C@H](NC(=O)[C@@H](NC(=O)CN)C(C)C)C(=O)N[C@H](C(=O)N[C@@H](CC(N)=O)C(=O)N[C@H](C(=O)N[C@@H](CCCCN)C(=O)N[C@H]1CSSC[C@@H]2NC(=O)[C@H](CCCCN)NC(=O)CNC(=O)[C@H](Cc3ccccc3)NC(=O)[C@H](CCCNC(=N)N)NC(=O)[C@H](CCSC)NC(=O)CNC(=O)[C@H](C)NC(=O)[C@H](CCCCN)NC(=O)[C@H](CCCCN)NC(=O)[C@@H]3CSSC[C@@H](C(=O)N[C@H](C(=O)N4CCC[C@H]4C(=O)N[C@@H](CCCCN)C(=O)O)[C@@H](C)O)NC(=O)[C@H](Cc4c[nH]cn4)NC(=O)[C@H](CSSC[C@H](NC(=O)[C@H](CCC(N)=O)NC(=O)[C@H](CCCNC(=N)N)NC(=O)[C@H](CO)NC(=O)[C@H](C)NC(=O)[C@H](CCCCN)NC1=O)C(=O)N[C@@H](CC(C)C)C(=O)N[C@@H](CCC(=O)O)C(=O)N1CCC[C@H]1C(=O)N3)NC(=O)[C@H](CCCCN)NC(=O)CNC(=O)[C@H](CC(N)=O)NC(=O)[C@H](CCSC)NC2=O)C(C)C)[C@@H](C)CC [I10A] (H-GVIINVKCKASRQCLEPCKKAGMRFGKCMNGKCHCTPK-OH; disulfide 8-28, 14-33, 18-35)	0.0912 nM	0.00446 nM
CC[C@H](C)[C@H](NC(=O)[C@@H](NC(=O)CN)C(C)C)C(=O)N[C@H](C(=O)N[C@@H](CC(N)=O)C(=O)N[C@H](C(=O)N[C@@H](CCCCN)C(=O)N[C@H]1CSSC[C@@H]2NC(=O)[C@H](CCCCN)NC(=O)CNC(=O)[C@H](Cc3ccccc3)NC(=O)[C@H](CCCNC(=N)N)NC(=O)[C@H](CCSC)NC(=O)CNC(=O)[C@H](C)NC(=O)[C@H](CCCCN)NC(=O)[C@H](CCCCN)NC(=O)[C@@H]3CSSC[C@@H](C(=O)N[C@H](C(=O)N4CCC[C@H]4C(=O)N[C@@H](CCCCN)C(=O)O)[C@@H](C)O)NC(=O)[C@H](Cc4c[nH]cn4)NC(=O)[C@H](CSSC[C@H](NC(=O)[C@H](CCC(N)=O)NC(=O)[C@H](CCCNC(=N)N)NC(=O)[C@H](CO)NC(=O)[C@H](CCC(=O)O)NC(=O)[C@H](CCCCN)NC1=O)C(=O)N[C@@H](CC(C)C)C(=O)N[C@@H](CCC(=O)O)C(=O)N1CCC[C@H]1C(=O)N3)NC(=O)[C@H](CCCCN)NC(=O)CNC(=O)[C@H](CC(N)=O)NC(=O)[C@H](CCSC)NC2=O)C(C)C)[C@@H](C)CC [I10E] (H-GVIINVKCKESRQCLEPCKKAGMRFGKCMNGKCHCTPK-OH; disulfide 8-28, 14-33, 18-35)	0.12 nM	0.0335 nM
CC[C@H](C)[C@H](NC(=O)[C@@H](NC(=O)CN)C(C)C)C(=O)N[C@H](C(=O)N[C@@H](CC(N)=O)C(=O)N[C@H](C(=O)N[C@@H](CCCCN)C(=O)N[C@H]1CSSC[C@@H]2NC(=O)[C@H](CCCCN)NC(=O)CNC(=O)[C@H](Cc3ccccc3)NC(=O)[C@H](CCCNC(=N)N)NC(=O)[C@H](CCSC)NC(=O)CNC(=O)[C@H](C)NC(=O)[C@H](CCCCN)NC(=O)[C@H](CCCCN)NC(=O)[C@@H]3CSSC[C@@H](C(=O)N[C@H](C(=O)N4CCC[C@H]4C(=O)N[C@@H](CCCCN)C(=O)O)[C@@H](C)O)NC(=O)[C@H](Cc4c[nH]cn4)NC(=O)[C@H](CSSC[C@H](NC(=O)[C@H](CCC(N)=O)NC(=O)[C@H](CCCNC(=N)N)NC(=O)[C@H](CO)NC(=O)[C@H](CCCNC(=N)N)NC(=O)[C@H](CCCCN)NC1=O)C(=O)N[C@@H](CC(C)C)C(=O)N[C@@H](CCC(=O)O)C(=O)N1CCC[C@H]1C(=O)N3)NC(=O)[C@H](CCCCN)NC(=O)CNC(=O)[C@H](CC(N)=O)NC(=O)[C@H](CCSC)NC2=O)C(C)C)[C@@H](C)CC [I10R] (H-GVIINVKCKRSRQCLEPCKKAGMRFGKCMNGKCHCTPK-OH; disulfide 8-28, 14-33, 18-35)	0.0117 nM	0.00173 nM
CC[C@H](C)[C@@H]1NC(=O)[C@H](CCCCN)NC(=O)[C@@H](NC(=O)[C@H](C)NC(=O)[C@@H](NC(=O)[C@H](CC(N)=O)NC(=O)[C@@H](NC(=O)[C@@H](NC(=O)[C@@H](NC(=O)CN)C(C)C)[C@@H](C)CC)[C@@H](C)CC)C(C)C)CSSC[C@@H]2NC(=O)[C@H](CCCCN)NC(=O)CNC(=O)[C@H](Cc3ccccc3)NC(=O)[C@H](CCCNC(=N)N)NC(=O)[C@H](CCSC)NC(=O)CNC(=O)[C@H](C)NC(=O)[C@H](CCCCN)NC(=O)[C@H](CCCCN)NC(=O)[C@@H]3CSSC[C@@H](C(=O)N[C@H](C(=O)N4CCC[C@H]4C(=O)N[C@@H](CCCCN)C(=O)O)[C@@H](C)O)NC(=O)[C@H](Cc4c[nH]cn4)NC(=O)[C@H](CSSC[C@H](NC(=O)[C@H](CCC(N)=O)NC(=O)[C@H](CCCNC(=N)N)NC(=O)[C@H](CO)NC1=O)C(=O)N[C@@H](CC(C)C)C(=O)N[C@@H](CCC(=O)O)C(=O)N1CCC[C@H]1C(=O)N3)NC(=O)[C@H](CCCCN)NC(=O)CNC(=O)[C@H](CC(N)=O)NC(=O)[C@H](CCSC)NC2=O [K7A] (H-GVIINVACKISRQCLEPCKKAGMRFGKCMNGKCHCTPK-OH; disulfide 8-28, 14-33, 18-35)	0.181 nM	0.0219 nM
CC[C@H](C)[C@@H]1NC(=O)[C@H](CCCCN)NC(=O)[C@@H](NC(=O)[C@H](CCC(=O)O)NC(=O)[C@@H](NC(=O)[C@H](CC(N)=O)NC(=O)[C@@H](NC(=O)[C@@H](NC(=O)[C@@H](NC(=O)CN)C(C)C)[C@@H](C)CC)[C@@H](C)CC)C(C)C)CSSC[C@@H]2NC(=O)[C@H](CCCCN)NC(=O)CNC(=O)[C@H](Cc3ccccc3)NC(=O)[C@H](CCCNC(=N)N)NC(=O)[C@H](CCSC)NC(=O)CNC(=O)[C@H](C)NC(=O)[C@H](CCCCN)NC(=O)[C@H](CCCCN)NC(=O)[C@@H]3CSSC[C@@H](C(=O)N[C@H](C(=O)N4CCC[C@H]4C(=O)N[C@@H](CCCCN)C(=O)O)[C@@H](C)O)NC(=O)[C@H](Cc4c[nH]cn4)NC(=O)[C@H](CSSC[C@H](NC(=O)[C@H](CCC(N)=O)NC(=O)[C@H](CCCNC(=N)N)NC(=O)[C@H](CO)NC1=O)C(=O)N[C@@H](CC(C)C)C(=O)N[C@@H](CCC(=O)O)C(=O)N1CCC[C@H]1C(=O)N3)NC(=O)[C@H](CCCCN)NC(=O)CNC(=O)[C@H](CC(N)=O)NC(=O)[C@H](CCSC)NC2=O [K7E] (H-GVIINVECKISRQCLEPCKKAGMRFGKCMNGKCHCTPK-OH; disulfide 8-28, 14-33, 18-35)	0.0142 nM	< 0.00152 nM
CC[C@H](C)[C@@H]1NC(=O)[C@H](CCCCN)NC(=O)[C@@H](NC(=O)[C@H](Cc2cccc3ccccc23)NC(=O)[C@@H](NC(=O)[C@H](CC(N)=O)NC(=O)[C@@H](NC(=O)[C@@H](NC(=O)[C@@H](NC(=O)CN)C(C)C)[C@@H](C)CC)[C@@H](C)CC)C(C)C)CSSC[C@@H]2NC(=O)[C@H](CCCCN)NC(=O)CNC(=O)[C@H](Cc3ccccc3)NC(=O)[C@H](CCCNC(=N)N)NC(=O)[C@H](CCSC)NC(=O)CNC(=O)[C@H](C)NC(=O)[C@H](CCCCN)NC(=O)[C@H](CCCCN)NC(=O)[C@@H]3CSSC[C@@H](C(=O)N[C@H](C(=O)N4CCC[C@H]4C(=O)N[C@@H](CCCCN)C(=O)O)[C@@H](C)O)NC(=O)[C@H](Cc4c[nH]cn4)NC(=O)[C@H](CSSC[C@H](NC(=O)[C@H](CCC(N)=O)NC(=O)[C@H](CCCNC(=N)N)NC(=O)[C@H](CO)NC1=O)C(=O)N[C@@H](CC(C)C)C(=O)N[C@@H](CCC(=O)O)C(=O)N1CCC[C@H]1C(=O)N3)NC(=O)[C@H](CCCCN)NC(=O)CNC(=O)[C@H](CC(N)=O)NC(=O)[C@H](CCSC)NC2=O [K7Nal] (H-GVIINV[1Nal]CKISRQCLEPCKKAGMRFGKCMNGKCHCTPK-OH; disulfide 8-28, 14-33, 18-35)	0.0236 nM	< 0.00152 nM
CC[C@H](C)[C@@H]1NC(=O)[C@H](CCCCN)NC(=O)[C@@H](NC(=O)[C@H](CCCNC(=N)N)NC(=O)[C@@H](NC(=O)[C@H](CC(N)=O)NC(=O)[C@@H](NC(=O)[C@@H](NC(=O)[C@@H](NC(=O)CN)C(C)C)[C@@H](C)CC)[C@@H](C)CC)C(C)C)CSSC[C@@H]2NC(=O)[C@H](CCCCN)NC(=O)CNC(=O)[C@H](Cc3ccccc3)NC(=O)[C@H](CCCNC(=N)N)NC(=O)[C@H](CCSC)NC(=O)CNC(=O)[C@H](C)NC(=O)[C@H](CCCCN)NC(=O)[C@H](CCCCN)NC(=O)[C@@H]3CSSC[C@@H](C(=O)N[C@H](C(=O)N4CCC[C@H]4C(=O)N[C@@H](CCCCN)C(=O)O)[C@@H](C)O)NC(=O)[C@H](Cc4c[nH]cn4)NC(=O)[C@H](CSSC[C@H](NC(=O)[C@H](CCC(N)=O)NC(=O)[C@H](CCCNC(=N)N)NC(=O)[C@H](CO)NC1=O)C(=O)N[C@@H](CC(C)C)C(=O)N[C@@H](CCC(=O)O)C(=O)N1CCC[C@H]1C(=O)N3)NC(=O)[C@H](CCCCN)NC(=O)CNC(=O)[C@H](CC(N)=O)NC(=O)[C@H](CCSC)NC2=O [K7R] (H-GVIINVRCKISRQCLEPCKKAGMRFGKCMNGKCHCTPK-OH; disulfide 8-28, 14-33, 18-35)	0.0132 nM	< 0.00152 nM
